2 compounds from PMC7694948, “Mitochondrial Targeting in an Anti-Austerity Approach Involving Bioactive Metabolites Isolated from the Marine-Derived Fungus Aspergillus sp” (Marine Drugs, 2020) can be followed below.

Each structure is given as a SMILES string. Where only a bound is given, the exact number is not on record here.

Assay [1] deals with mitochondrial membrane potential of human pancreatic carcinoma PANC-1 cells. Nature of the assay: Mitochondrial membrane potential (JC-1 MitoMP Detection Kit). The conditions noted are these: PANC-1 adapted to glucose-deficient medium; 1 h treatment; JC-1 Red/Green ratio. The assay is classed as cell-based. The protocol:
Figure 2 Effect of compounds 1 and 2 on the mitochondrial membrane potential of human pancreatic carcinoma PANC-1 cells. PANC-1 cells that adapted to glucose-deficient medium in the 96-well plates were treated with the indicated concentrations of the compounds for 1 h. Next, JC-1 working solution was added for measuring the mitochondrial membrane potential, and the plate was incubated for 30 min. The fluorescence intensity of the cells was measured using a Tecan Infinite M1000 microplate reader at Ex 485 nm and Em 535 nm (Green color fluorescence) and Ex 535 nm and Em 595 nm (Red color fluorescence). Differences were considered significant at * p < 0.05.
The mitochondrial membrane potential of PANC-1 cells was evaluated using the JC-1 MitoMP Detection Kit (Dojindo Laboratories) following the manufacturer’s instructions. […] The fluorescence intensity of the cells was assessed using an Infinite M1000 microplate reader (Tecan Group Ltd., Mannedorf, Switzerland) at Ex 485 nm and Em 535 nm (Green color fluorescence) and Ex 535 nm and Em 595 nm (Red color fluorescence). The ratio of the two fluorescence intensities (Red vs. Green) was then calculated.

Assay [2] deals with oxygen consumption by PANC-1 cells. Briefly: Oxygen consumption (Oxygen Consumption Rate Assay Kit). The conditions noted are these: PANC-1 in general glucose medium. It counts as cell-based, human. The protocol: Figure 3 Effect of compounds 1 and 2 on the oxygen consumption by PANC-1 cells. The precultured PANC-1 cells in the 96-well plates were incubated in general culture medium for 12 h at 37 °C. The medium was then replaced with fresh medium; subsequently, the test compound was added, followed by addition of the phosphorescent probe to measure the oxygen consumption. The signals were measured with a Tecan Infinite M1000 microplate reader by using the time-resolved mode. Differences were considered significant at * p < 0.05. CCCP: carbonyl cyanide m-chlorophenylhydrazone.
The oxygen consumption of PANC-1 cells was analyzed using the Oxygen Consumption Rate Assay Kit (Cayman Chemical) following the manufacturer’s instructions. Briefly, precultured PANC-1 cells (8.0 × 10^4 cells) in black/clear bottom 96-well plates (Corning Incorporated) were incubated for 12 h at 37 °C in general glucose medium. […] The signals were measured using an Infinite M1000 microplate reader (Tecan Group Ltd., Zurich, Switzrland) in the time-resolved mode at Ex 380 nm and Em 650 nm for 180 min, with a 1-min time interval. Linear regression was applied after subtracting the blank, and the oxygen consumption rate was determined by the slope of each signal profile.

Assay [3] addresses T1, Mitochondrial complex II (succinate dehydrogenase/coenzyme Q reductase) (Bos taurus, UniProt P31039+P35720+Q3T189+Q95123).
T1 construct: enzymatic activity of each complex derived from bovine heart mitochondria; purchased Cayman Chemical; host or cells: bovine heart mitochondria (tissue-derived, supplied in kit)
Briefly: MitoCheck Complex Activity Assay, complex II. The conditions noted are these: for IC50: bovine heart mitochondria. It counts as biochemical, bovine. The method, then: (§1) The inhibitory activity of compound 1 on the mitochondrial electron transport chain (complexes I–V) was analyzed using MitoCheck Complex Activity Assay kits (Cayman Chemical) following the manufacturer’s instructions. The kits measured the enzymatic activity of each complex derived from bovine heart mitochondria in the following systems: Mitochondrial complex I (NADH oxidase/coenzyme Q reductase) activity was determined by measuring the decrease in NADH oxidation, which is reflected by a decrease in absorbance at 340 nm. Mitochondrial complex II (succinate dehydrogenase/coenzyme Q reductase) activity was assessed on the basis of the reduction rate of 2, 6-dichlorophenolindophenol (protonated by reduced coenzyme Q), which is reflected by a decrease in absorbance at 600 nm. Mitochondrial complex III (coenzyme Q cytochrome c oxidoreductase) activity was determined on the basis of the cytochrome c reduction rate, which is reflected by an increase in absorbance at 550 nm. Mitochondrial complex IV (cytochrome c oxidase) activity was determined by measuring the cytochrome c oxidation rate, which is reflected by a decrease in absorbance at 550 nm. Mitochondrial complex V (F1F0 ATP synthase) activity was determined by the NADH oxidation rate, which can be monitored at 340 nm.

The target of assay [4] is Mitochondrial complex III (coenzyme Q cytochrome c oxidoreductase) (Bos taurus, UniProt P00125+P00157+P13272). Briefly: MitoCheck Complex Activity Assay, complex III. The assay is classed as biochemical, bovine. The conditions noted are these: for IC50: bovine heart mitochondria. The method, then:
as §1

For assay [5], the target named is T2, Mitochondrial complex IV (cytochrome c oxidase) (Bos taurus, UniProt P00396+P00415+P68530).
T2 construct: enzymatic activity of each complex derived from bovine heart mitochondria; purchased Cayman Chemical; host or cells: bovine heart mitochondria (tissue-derived, supplied in kit)
Nature of the assay: MitoCheck Complex Activity Assay, complex IV. It counts as biochemical. The conditions noted are these: bovine heart mitochondria. The protocol:
as §1, with “The” for “The inhibitory activity of compound 1 on the mitochondrial electron transport chain (complexes I–V) was analyzed using MitoCheck Complex Activity Assay kits (Cayman Chemical) following the manufacturer’s instructions. The”

Chain of Mitochondrial complex III (coenzyme Q cytochrome c oxidoreductase) (P00125 85-325): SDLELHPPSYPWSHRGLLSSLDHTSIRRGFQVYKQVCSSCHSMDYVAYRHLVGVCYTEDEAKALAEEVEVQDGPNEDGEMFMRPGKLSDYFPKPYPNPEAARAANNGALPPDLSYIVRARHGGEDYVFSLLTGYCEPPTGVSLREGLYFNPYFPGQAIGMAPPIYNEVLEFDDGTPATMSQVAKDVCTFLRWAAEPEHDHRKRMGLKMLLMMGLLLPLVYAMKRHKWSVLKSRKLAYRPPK
Chain of Mitochondrial complex III (coenzyme Q cytochrome c oxidoreductase) (P00157 whole entry): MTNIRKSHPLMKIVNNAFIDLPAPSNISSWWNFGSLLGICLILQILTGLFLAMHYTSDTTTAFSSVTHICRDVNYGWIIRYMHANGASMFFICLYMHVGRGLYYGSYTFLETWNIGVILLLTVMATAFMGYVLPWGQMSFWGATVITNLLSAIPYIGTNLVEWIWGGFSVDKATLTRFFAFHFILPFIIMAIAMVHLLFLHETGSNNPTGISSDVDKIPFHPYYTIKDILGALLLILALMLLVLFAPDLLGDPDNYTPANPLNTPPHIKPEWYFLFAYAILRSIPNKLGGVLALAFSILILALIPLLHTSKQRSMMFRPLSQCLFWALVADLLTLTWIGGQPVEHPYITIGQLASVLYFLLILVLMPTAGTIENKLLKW
Chain of Mitochondrial complex III (coenzyme Q cytochrome c oxidoreductase) (P13272 whole entry): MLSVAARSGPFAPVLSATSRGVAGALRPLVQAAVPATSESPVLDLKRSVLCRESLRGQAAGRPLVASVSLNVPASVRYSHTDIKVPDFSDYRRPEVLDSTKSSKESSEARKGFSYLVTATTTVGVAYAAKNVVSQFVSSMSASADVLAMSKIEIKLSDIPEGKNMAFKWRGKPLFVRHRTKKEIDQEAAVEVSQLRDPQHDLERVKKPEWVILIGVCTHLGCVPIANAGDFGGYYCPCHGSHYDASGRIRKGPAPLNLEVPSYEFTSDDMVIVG
T1 sequence (P31039 44-665): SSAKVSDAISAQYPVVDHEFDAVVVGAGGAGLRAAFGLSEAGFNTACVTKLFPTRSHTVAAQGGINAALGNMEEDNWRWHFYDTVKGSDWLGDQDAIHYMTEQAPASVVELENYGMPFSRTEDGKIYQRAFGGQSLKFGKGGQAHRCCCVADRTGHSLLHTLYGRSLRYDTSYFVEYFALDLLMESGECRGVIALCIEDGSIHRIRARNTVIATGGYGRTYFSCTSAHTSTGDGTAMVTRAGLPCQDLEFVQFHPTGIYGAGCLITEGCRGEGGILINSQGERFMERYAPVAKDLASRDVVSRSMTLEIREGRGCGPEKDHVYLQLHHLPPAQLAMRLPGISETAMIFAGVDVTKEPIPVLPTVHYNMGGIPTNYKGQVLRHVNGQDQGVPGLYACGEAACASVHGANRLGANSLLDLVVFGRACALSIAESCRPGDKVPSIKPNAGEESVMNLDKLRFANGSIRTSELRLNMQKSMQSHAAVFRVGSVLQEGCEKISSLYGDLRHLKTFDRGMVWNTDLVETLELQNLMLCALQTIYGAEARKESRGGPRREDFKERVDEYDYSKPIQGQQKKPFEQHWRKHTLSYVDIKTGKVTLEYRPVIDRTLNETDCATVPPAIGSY
T1 sequence (Q3T189 29-280): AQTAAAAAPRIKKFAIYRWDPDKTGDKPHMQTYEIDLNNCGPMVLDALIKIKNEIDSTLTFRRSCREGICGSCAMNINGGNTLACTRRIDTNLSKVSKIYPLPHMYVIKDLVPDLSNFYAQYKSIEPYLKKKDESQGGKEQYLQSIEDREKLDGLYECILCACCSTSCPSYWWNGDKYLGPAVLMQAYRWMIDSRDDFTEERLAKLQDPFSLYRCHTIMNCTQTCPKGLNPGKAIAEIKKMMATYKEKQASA
T1 sequence (P35720 30-169): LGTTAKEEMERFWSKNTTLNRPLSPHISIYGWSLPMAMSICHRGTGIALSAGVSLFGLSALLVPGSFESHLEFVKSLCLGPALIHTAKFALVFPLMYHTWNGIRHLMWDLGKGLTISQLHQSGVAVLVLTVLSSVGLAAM
T1 sequence (Q95123 56-158): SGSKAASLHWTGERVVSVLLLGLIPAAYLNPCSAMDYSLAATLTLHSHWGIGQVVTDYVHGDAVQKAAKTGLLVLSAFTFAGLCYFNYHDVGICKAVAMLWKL

Turning to `COc1cc(O)c2c(c1)C(=O)c1cc(C)cc(O)c1C2=O` [Compound 1, physcion], the “effect on mitochondrial membrane potential” value in assay [1] is on record as “dose-dependently decrease”. In addition, in assay [2], the “effect on oxygen consumption” value is “inhibit oxygen consumption to a similar extent as antimycin A”. For the same compound, the IC50 in assay [3] is 90 ± 0.11 µM; in assay [4] it was more than 100 µM; in assay [5], 34 ± 0.3 µM. Further, the inhibition at 100 µM in assay [4] amounted to 9%.
Regarding `C/C=C/C=C/c1cc2c(C=O)c(O)c(CC=C(C)C)cc2o1` [Compound 2, 2-(2′,3-epoxy-1′,3′,5′-heptatrienyl)-6-hydroxy-5-(3-methyl-2-butenyl) benzaldehyde], in assay [1], the “effect on mitochondrial membrane potential” value is “dose-dependently decrease”. In assay [2], the “effect on oxygen consumption” value is recorded as “inhibit oxygen consumption to a similar extent as antimycin A”. Moreover, the inhibition at 100 µM in assay [3] (100 µM) is 24%; in assay [4], 6%. In addition, the IC50 in assay [3] was more than 100 µM; in assay [4], more than 100 µM; in assay [5] it was 20 ± 0.3 µM.
